# Laboratory results taken from US20200262813A1, “1,5,7-TRISUBSTITUTED ISOQUINOLINE DERIVATIVES, PREPARATION THEREOF, AND USE THEREOF IN MEDICINES” (SHANGHAI HAIYAN PHARMACEUTICAL TECHNOLOGY CO., LTD., priority 2016, published 2020).
# What was measured:
# [1] = tested on: Pfeiffer cells; assay: Cell proliferation test (cell counting kit-8, 6 days); type: cell-based; conditions: 6 days' growth
# Procedure: Cells were harvested by centrifuge and densities were determined using a CounterStar cell counter. Appropriate number of cells were plated in a 96-well culture plate and incubated overnight. Compounds to be tested were 1:3 diluted for 8 gradient points and added into corresponding wells. After 6 days' growth, cell counting kit-8 (Dojindo) was used to detect cell viability and absorbance values were read on Tecan infinite pro.
# [2] = target: Recombinant PRC2 (EZH2-Y641F) (Homo sapiens, UniProt Q15910, Y641F); assay: In vitro methyltransferase activity test (LANCE Ultra); conditions: EZH2 Y641F IC50, Recombinant PRC2 (EZH2-Y641F), LANCE Ultra detection, 3 hours reaction;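 further: compounds tested as an 8-point threefold dilution series, fluorescence read after 1 h detection step at room temperature, IC50 derived from a four-parameter curve fit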
# Recombinant PRC2 (EZH2-Y641F), sequence (Q15910 whole entry Y641F): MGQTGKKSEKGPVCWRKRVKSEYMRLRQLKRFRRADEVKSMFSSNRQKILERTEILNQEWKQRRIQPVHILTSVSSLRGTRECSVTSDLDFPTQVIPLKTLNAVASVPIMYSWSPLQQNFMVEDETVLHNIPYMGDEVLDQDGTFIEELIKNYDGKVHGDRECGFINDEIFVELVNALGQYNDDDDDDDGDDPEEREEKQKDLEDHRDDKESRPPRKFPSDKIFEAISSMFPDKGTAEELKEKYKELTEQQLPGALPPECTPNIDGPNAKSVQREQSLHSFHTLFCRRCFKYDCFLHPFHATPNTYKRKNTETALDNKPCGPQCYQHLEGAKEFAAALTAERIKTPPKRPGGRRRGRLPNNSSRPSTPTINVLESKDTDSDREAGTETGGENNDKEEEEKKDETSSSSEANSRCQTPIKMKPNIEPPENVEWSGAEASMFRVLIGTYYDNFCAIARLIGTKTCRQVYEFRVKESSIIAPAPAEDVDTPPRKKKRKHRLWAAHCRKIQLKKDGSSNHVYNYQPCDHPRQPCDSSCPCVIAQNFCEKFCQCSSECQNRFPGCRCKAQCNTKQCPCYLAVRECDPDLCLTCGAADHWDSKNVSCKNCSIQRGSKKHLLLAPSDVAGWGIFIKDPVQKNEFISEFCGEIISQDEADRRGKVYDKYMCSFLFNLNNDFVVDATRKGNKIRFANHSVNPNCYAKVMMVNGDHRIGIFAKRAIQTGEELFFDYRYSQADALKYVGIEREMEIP
# Recombinant PRC2 (EZH2-Y641F), sequence (O75530 whole entry partner): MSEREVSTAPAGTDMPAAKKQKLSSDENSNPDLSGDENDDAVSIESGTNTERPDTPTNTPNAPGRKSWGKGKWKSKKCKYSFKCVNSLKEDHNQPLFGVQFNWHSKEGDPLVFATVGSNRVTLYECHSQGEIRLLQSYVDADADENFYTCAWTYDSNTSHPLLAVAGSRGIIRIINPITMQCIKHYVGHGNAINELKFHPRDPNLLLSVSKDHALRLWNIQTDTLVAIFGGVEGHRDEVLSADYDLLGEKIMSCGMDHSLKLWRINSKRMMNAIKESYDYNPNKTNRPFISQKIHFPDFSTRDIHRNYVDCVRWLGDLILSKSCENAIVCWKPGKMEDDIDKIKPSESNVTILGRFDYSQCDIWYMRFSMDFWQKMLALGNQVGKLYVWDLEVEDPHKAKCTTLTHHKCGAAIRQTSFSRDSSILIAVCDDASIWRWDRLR
# Recombinant PRC2 (EZH2-Y641F), sequence (Q15022 whole entry partner): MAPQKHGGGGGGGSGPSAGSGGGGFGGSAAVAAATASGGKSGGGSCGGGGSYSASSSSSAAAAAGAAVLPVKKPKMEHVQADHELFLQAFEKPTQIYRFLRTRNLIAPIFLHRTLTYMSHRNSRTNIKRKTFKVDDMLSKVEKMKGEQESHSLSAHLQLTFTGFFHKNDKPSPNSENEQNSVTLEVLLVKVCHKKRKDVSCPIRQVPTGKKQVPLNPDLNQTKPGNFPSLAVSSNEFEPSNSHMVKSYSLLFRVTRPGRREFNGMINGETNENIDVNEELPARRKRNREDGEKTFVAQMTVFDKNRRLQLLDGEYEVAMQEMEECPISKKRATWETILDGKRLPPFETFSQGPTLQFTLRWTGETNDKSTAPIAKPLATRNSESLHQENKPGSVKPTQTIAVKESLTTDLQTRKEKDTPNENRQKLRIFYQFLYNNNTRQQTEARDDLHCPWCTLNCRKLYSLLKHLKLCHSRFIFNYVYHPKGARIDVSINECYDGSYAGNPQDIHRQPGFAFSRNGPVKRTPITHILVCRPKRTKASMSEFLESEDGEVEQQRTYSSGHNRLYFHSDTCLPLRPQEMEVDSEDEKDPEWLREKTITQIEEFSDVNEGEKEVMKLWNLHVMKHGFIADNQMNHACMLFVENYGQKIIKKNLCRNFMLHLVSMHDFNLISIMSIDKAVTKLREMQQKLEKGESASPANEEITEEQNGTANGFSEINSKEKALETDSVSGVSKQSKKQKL
# Recombinant PRC2 (EZH2-Y641F), sequence (Q09028 whole entry partner): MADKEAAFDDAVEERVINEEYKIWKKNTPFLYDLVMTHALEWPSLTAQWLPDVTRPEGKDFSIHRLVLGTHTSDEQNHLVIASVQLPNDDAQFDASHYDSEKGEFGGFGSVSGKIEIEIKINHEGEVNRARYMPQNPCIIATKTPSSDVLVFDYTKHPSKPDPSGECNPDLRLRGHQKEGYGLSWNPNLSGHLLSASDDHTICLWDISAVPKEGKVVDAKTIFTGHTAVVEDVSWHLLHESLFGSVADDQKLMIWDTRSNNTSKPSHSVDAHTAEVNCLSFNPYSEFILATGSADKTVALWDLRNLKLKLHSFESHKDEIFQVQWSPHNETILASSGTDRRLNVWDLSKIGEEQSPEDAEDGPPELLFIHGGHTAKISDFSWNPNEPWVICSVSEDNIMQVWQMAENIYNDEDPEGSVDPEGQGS
# Recombinant PRC2 (EZH2-Y641F), sequence (Q6ZN18 whole entry partner): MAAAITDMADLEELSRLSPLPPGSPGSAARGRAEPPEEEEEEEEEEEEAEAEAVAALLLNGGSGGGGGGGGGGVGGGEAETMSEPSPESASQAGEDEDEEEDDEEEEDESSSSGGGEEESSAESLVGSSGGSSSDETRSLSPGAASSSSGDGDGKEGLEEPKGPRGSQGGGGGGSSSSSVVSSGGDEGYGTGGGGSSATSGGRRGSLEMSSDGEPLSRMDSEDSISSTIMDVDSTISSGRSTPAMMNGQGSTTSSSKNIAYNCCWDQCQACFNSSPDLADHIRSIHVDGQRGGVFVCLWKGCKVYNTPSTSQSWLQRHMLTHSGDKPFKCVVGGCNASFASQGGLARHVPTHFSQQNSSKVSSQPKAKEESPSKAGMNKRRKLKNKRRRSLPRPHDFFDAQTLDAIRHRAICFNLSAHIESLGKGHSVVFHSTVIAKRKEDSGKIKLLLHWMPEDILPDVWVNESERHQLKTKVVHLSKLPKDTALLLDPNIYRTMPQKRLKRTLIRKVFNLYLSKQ
# Procedure: In Vitro Methyltransferase Activity Test
# Recombinant PRC2 (EZH2-Y641F) was purchased from Active motif, S-adenosyl-methionine (SAM) and Poly-L-lysine (PLL) were purchased from Sigma-Aldrich, H3(1-50)K27mel polypeptide was purchased from Cisbio. LANCEUltra system (Perkinelmer) was used for detection. In the enzyme activity test, a compound to be tested was 1:3 diluted for 8 gradient points, added into a reaction plate, and then added 100 ng recombinant enzyme. And then a buffer [20 mM Tris pH8.5, 2 mM MgCl2, 0.01% Tween-20, 1 mM TCEP] containing 2.5 M SAM/250 nM H3(1-50)K27mel premixture was added to conduct an enzyme reaction at room tempreture. After reacted for 3 hours, a dection solution containing premixed PLL, detection antibody and Ulight was added, reacted for 1 h at RT, then fluorescence was read on Tecan infinite pro. IC50s were calculated by four-factor model fitting in a XLfit software.
Structure (SMILES),IC50 [2],"IC50 ([1]; Homo sapiens, Pfeiffer, 144 h)",IC50 [1]
"CCN(c1c(F)c(-c2ccc(N3CCN(C)CC3)nc2)cc2c(NCc3c(C)cc(C)nc3O)nccc12)[C@H]1CC[C@H](N(C)C)CC1 [Compound Z-232, 3-((5-(((1R,4R)-4-(dimethylamino)cyclohexyl) (ethyl)amino)-6-fluoro-7-(6-(4-methylpiperazin-1-yl)pyridin-3-yl)isoquinolin-1-ylamino)methyl)-4,6-dimethyl-2(1H)-one]",26 nM,188 nM,–
CCN(c1cc(-c2ccc(CN3CCN(C)C(=O)C3)nc2)cc2c(NCc3c(C)cc(C)[nH]c3=O)nccc12)C1CCOCC1 [Compound Z-114],84 nM,788 nM,–
CCN(c1cc(Cl)cc2c(NCc3c(C)cc(C)[nH]c3=O)nccc12)[C@H]1CC[C@@H](N(C)C)CC1 [Compound Z-136],49 nM,465 nM,–
"CCOc1cc(N(CC)C2CCC(N(C)C)CC2)c2ccnc(NCc3c(C)cc(C)[nH]c3=O)c2n1 (stereo not drawn) [Compound Z-222, 3-((4-((4-(dimethylamino)cyclohexyl) (ethyl)amino)-2-ethoxy-1,7-naphthyridin-8-ylamino)methyl)-4,6-dimethyl-2(1H)-one]",143 nM,484 nM,–
CCN(c1cc(Cl)cc2c(NCc3c(C)cc(C)[nH]c3=O)nccc12)C1CC2CCC(C1)N2 (stereo not drawn) [Compound Z-209],10 nM,250 nM,–
CCN(c1cc(Cl)cc2c(NCc3c(OC)cc(C)[nH]c3=O)nccc12)C1CCC(N(C)C)CC1 (stereo not drawn) [Compound Z-197],51 nM,371 nM,–
CCN(c1cc(Cl)cc2c(NCc3c(OC)cc(C)[nH]c3=O)nccc12)C1CCNCC1 [Compound Z-208],9 nM,155 nM,–
CCN(c1cc(-c2cnc(CN3CCOCC3)nc2)cc2c(NCc3c(C)cc(C)[nH]c3=O)nccc12)C1CCOCC1 [Compound Z-121],474 nM,646 nM,–
CCN(c1cc(N(C)c2cccnc2)cc2c(NCc3c(C)cc(C)[nH]c3=O)nccc12)C1CCC(N(C)C)CC1 (stereo not drawn) [Compound Z-186],67 nM,251 nM,–
CCN(c1cc(C#CCN2CCOCC2)cc2c(NCc3c(C)cc(C)[nH]c3=O)nccc12)C1CCC(N(C)C)CC1 (stereo not drawn) [Compound Z-177],31 nM,444 nM,–
CCN(c1cc(-c2ccc(CN3CCN(C)CC3)nc2)cc2c(NCc3c(C)cc(C)[nH]c3=O)nccc12)C1CCC(F)(F)CC1 [Compound Z-105],197 nM,988 nM,–
"CCN(c1c(F)c(-c2ccc(N3CCN(C)CC3)nc2)cc2c(NCc3c(C)cc(C)[nH]c3=O)nccc12)C1CCOCC1 [Compound Z-224, 3-((5-(ethyl(tetrahydro-2H-pyran-4-yl)amino)-6-fluoro-7-(6-(4-methylpiperazin-1-yl)pyridin-3-yl)isoquinolin-1-ylamino)methyl)-4,6-dimethyl-2(1H)-one]",360 nM,605 nM,–
CCN(c1cc(-c2ccc(N3CCOCC3)nc2)cc2c(NCc3c(C)cc(C)[nH]c3=O)nccc12)C1CCN(C(C)C)CC1 [Compound Z-66],159 nM,766 nM,–
CCN(CCN(C)C)c1cc(-c2ccc(N3CCN(C)CC3)nc2)cc2c(NCc3c(C)cc(C)[nH]c3=O)nccc12 [Compound Z-97],283 nM,326 nM,–
CCN(c1cc(-c2cccnc2)cc2c(NCc3c(C)cc(C)[nH]c3=O)nccc12)C1CCC(O)CC1 (stereo not drawn) [Compound Z-85],269 nM,521 nM,–
CCN(c1cc(-c2cnc(CN3CCN(C)CC3)c(F)c2)cc2c(NCc3c(C)cc(C)[nH]c3=O)nccc12)C1CCOCC1 [Compound Z-116],41 nM,525 nM,–
CCN(c1cc(-c2cncc(F)c2)cc2c(NCc3c(C)cc(C)[nH]c3=O)nccc12)C1CCN(C(C)C)CC1 [Compound Z-125],22 nM,772 nM,–
CCN(c1cc(-c2ccc(N3CCN(C)CC3)nc2)cc2c(NCc3c(C)cc(C)[nH]c3=O)nccc12)C1CCC(F)(F)CC1 [Compound Z-94],159 nM,384 nM,–
CCN(c1cc(-c2ccccn2)cc2c(NCc3c(C)cc(C)[nH]c3=O)nccc12)C1CCN(C(C)C)CC1 [Compound Z-126],156 nM,765 nM,–

# Further lines, with some results ahead:
IC50 [2],Structure (SMILES),"IC50 ([1]; Homo sapiens, Pfeiffer, 144 h)",IC50 [1]
74 nM,CCN(c1cc(-c2ccc(C3CC3)nc2)cc2c(NCc3c(C)cc(C)[nH]c3=O)nccc12)C1CCC(N(C)C)CC1 (stereo not drawn) [Compound Z-93],279 nM,–
28 nM,"CCN(c1c(F)c(-c2ccc(N3CCN(C)CC3)nc2)cc2c(NCc3c(C)cc(C)[nH]c3=O)nccc12)C1CCC(N(C)C)CC1 (stereo not drawn) [Compound Z-218, 3-((5-((4-(dimethylamino)cyclohexyl) (ethyl)amino)-6-fluoro-7-(6-(4-methylpiperazin-1-yl)pyridin-3-yl)isoquinolin-1-ylamino)methyl)-4,6-dimethyl-2(1H)-one]",212 nM,–
13 nM,"CCN(c1cc(-c2ccc(C3CCN(C)CC3)nc2)cc2c(NCc3c(C)cc(C)[nH]c3=O)nccc12)[C@H]1CC[C@H](N(C)C)CC1 [Compound Z-17, 3-((5-(((1R,4R)-4-(dimethylamino)cyclohexyl) (ethyl)amino)-7-(6-(1-methylpiperidine-4-yl)pyridine-3-yl)-isoquinolinylamino)methyl)-4,6-dimethylpyridine-2(1H)-one]",768 nM,–
42 nM,CCN(c1cc(-c2cnc(N3CCOCC3)nc2)cc2c(NCc3c(OC)cc(C)[nH]c3=O)nccc12)C1CCC(N(C)C)CC1 (stereo not drawn) [Compound Z-192],393 nM,–
19 nM,CCN(c1cc(-c2ccc(CN3CCN(C)CC3)cc2)cc2c(NCc3c(C)cc(C)[nH]c3=O)nccc12)[C@H]1CC[C@H](N(C)C)CC1 [Compound Z-54],614 nM,–
37 nM,Cc1cc(C)c(CNc2nccc3c(N(C)C4CCC(N(C)C)CC4)cc(-c4ccc(N5CCN(C)CC5)nc4)cc23)c(=O)[nH]1 (stereo not drawn) [Compound Z-111],478 nM,–
16 nM,CCN(c1cc(-c2ccc(N3CCOCC3)nc2)cc2c(NCc3c(C)cc(C)[nH]c3=O)nccc12)C1CCC(N(C)C)CC1 (stereo not drawn) [Compound Z-39],507 nM,–
38 nM,CCN(c1cc(-c2ccc(CN(C)C)cc2)cc2c(NCc3c(C)cc(C)[nH]c3=O)nccc12)C1CCC(N(C)C)CC1 (stereo not drawn) [Compound Z-45],599 nM,–
221 nM,CCN(c1cc(-c2ccc(CN3CCN(C)CC3)nc2)cc2c(NCc3c(C)cc(C)[nH]c3=O)nccc12)C1CCOCC1 [Compound Z-35],–,611 nM
43 nM,CCN(c1cc(-c2cnc(N3CCN(C)CC3)nc2)cc2c(NCc3c(C)cc(C)[nH]c3=O)nccc12)C1CCC(O)CC1 (stereo not drawn) [Compound Z-89],401 nM,–
31 nM,"CCN(c1cc(-c2ccc(N3CCN(C)CC3)nc2)cc2c(NCc3c(C)cc(C)[nH]c3=O)nccc12)C1CCNC(C)C1 (stereo not drawn) [Compound Z-220, 3-((5-(ethyl (2-methylpiperidin-4-yl)amino)-7-(6-(4-methylpiperazin-1-yl)pyridin-3-yl)isoquinolin-1-ylamino)methyl)-4,6-dimethylpyridine-2(1H)-one]",651 nM,–
